# Assay results from the NIST ThermoML archive (doi:10.1016/j.jct.2013.08.020).
# Numbers after ± are expanded uncertainties.
# Legend:
# [1] = Liquid; for vapor or sublimation pressure: Ebulliometric method (Recirculating still)
# [2] = refractive index (Na D-line) (dimensionless); details: 298.15 K; 101 kPa; Liquid; Standard Abbe refractometry
Structure (SMILES),vapor or sublimation pressure ([1]; 351.45 K),refractive index [2],"mass density ([1]; 298.15 K, 101 kPa, Vibrating tube method)",vapor or sublimation pressure ([1]; 373.15 K)
CCO [ethanol],101.3 ± 0.5 kPa,1.35924 ± 0.00032,–,–
"OCCCO [propan-1,3-diol]",–,1.43851 ± 0.00037,1049.68 ± 0.27 kg/m3,–
O [water],–,1.33237 ± 0.00032,–,101.3 ± 0.5 kPa
